According to PMC7400437, “Synthesis and Evaluation of the Antibacterial Activities of 13-Substituted Berberine Derivatives” (Antibiotics, 2020):
Where two headings read alike, the source gives them in different places.

Legend:
[1] = tested on: P. aeruginosa (Quinolone-resistant); assay: MIC, antimicrobial activity assay; format: cell-based; details: Pseudomonas aeruginosa, read-out: MIC P. aeruginosa (Quinolone-resistant)
S. flexneri = assay: MIC, antimicrobial activity assay; format: cell-based, Shigella flexneri (ATCC 12022); details: Shigella flexneri; Table 4, Gram-negative
A. gandavensis = assay: MIC, antimicrobial activity assay; format: cell-based, Arthrobacter gandavensis (DSM 2447); details: Arthrobacter gandavensis; Table 4, Gram-positive
[2] = tested on: HepG2 (human liver cells); assay: Cytotoxic assay on human cells (resazurin); format: cell-based; details: HepG2, 48 h, read-out: Inhibitory Concentration 50 (IC50) on cell viability, HEPG2
Procedure: (§1) The toxicity of berberine and berberine’s derivatives on human cells was evaluated using resazurin assay as previously described. Human cells used were BEAS (ATCC CRL-9609), Caco2 (ATCC HTB-37) and HepG2 (ATCC HB-8065) corresponding respectively to human airway epithelial cells, intestinal epithelial cells and liver cells. Cells were cultured in Dulbecco’s modified essential medium (DMEM) supplemented with 10% fetal bovine serum (FBS), 1% L-glutamine and 1% antibiotics (Thermo Fisher Scientific, Illkirch-Graffenstaden, France). Cells were routinely grown on 25 cm^2 flasks and maintained in a 5% CO2 incubator at 37 °C. For toxicity assay, cells were detached using trypsin–EDTA solution (Thermo Fisher Scientific), counted using Mallasez counting chamber and seeded into 96-well cell culture plates (Greiner bio-One, Dominique Dutscher, Brumath, France) at approximately 10,000 cells per well. The cells were left to grow for 48–72 h at 37 °C in a 5% CO2 incubator until they reached confluence. Media from wells was then aspirated and cells were treated with 100 µL of culture media containing increasing concentrations of berberine or berberine’s derivatives obtained by serial dilution (from 0 to 50 µM, 1:2 dilution), DMSO (0.5% DMSO final concentration) was used as negative control. After 48 h incubation at 37 °C in a 5% CO2 incubator, cell viability was evaluated using resazurin based in vitro toxicity assay kit (Sigma-Aldrich) following manufacturer’s instructions. Briefly, cell wells were emptied, and cells were treated with 100 µL of resazurin diluted 1:10 in sterile PBS containing calcium and magnesium (PBS^++, pH 7.4). After 4 h incubation at 37 °C, fluorescence intensity (excitation wavelength of 530 nm/emission wavelength of 590 nm) was measured using Synergy Mx microplate reader (Biotek). The fluorescence values were normalized by the controls (DMSO treated cells) and expressed as percent viability. The IC50 values of berberine and berberine’s derivatives on cell viability (i.e., the concentration of derivative causing a reduction of 50% of the cell viability) were calculated using GraphPad® Prism 7 software (San Diego, CA, USA). t-Test and two ways ANOVA analyses were used to address the significant differences between mean values with significance set at p < 0.05.

[3] = tested on: Caco2 (human intestinal epithelial cells); assay: Cytotoxic assay on human cells (resazurin); format: cell-based; details: for IC50: Homo sapiens, Caco-2, 48 h, read-out: Inhibitory Concentration 50 (IC50) on cell viability, Caco2; for therapeutic index Caco2: IC50 on Caco2 divided by MIC on S. aureus
Procedure: as §1

[4] = tested on: BEAS (human airway epithelial cells); assay: Cytotoxic assay on human cells (resazurin); format: cell-based; details: Epithelial cell, 48 h, means +/−SD, read-out: Inhibitory Concentration 50 (IC50) on cell viability, BEAS
Procedure: as §1

V. alginolyticus = assay: MIC, antimicrobial activity assay; format: cell-based, Vibrio alginolyticus (DSM 2171); details: Vibrio alginolyticus; Table 4, Gram-negative
E. coli = assay: MIC, antimicrobial activity assay; format: cell-based, Escherichia coli (ATCC 8739); details: Escherichia coli
C. perfringens = assay: microbe, parasite or virus in culture; format: cell-based, Clostridium perfringens (ATCC 13124); details: Clostridium perfringens, read-out: MIC C. perfringens
P. aeruginosa = assay: MIC, antimicrobial activity assay; format: cell-based, Pseudomonas aeruginosa (ATCC 9027); details: Pseudomonas aeruginosa
B. subtilis = assay: MIC, antimicrobial activity assay; format: cell-based, Bacillus subtilis (ATCC 6633); details: Bacillus subtilis
A. baumannii = assay: MIC, antimicrobial activity assay; format: cell-based, Acinetobacter baumannii (CIP 110431); details: Acinetobacter baumannii; Table 4, Gram-negative
S. aureus = assay: MIC, antimicrobial activity assay; format: cell-based, Staphylococcus aureus (ATCC 6538P); details: Staphylococcus aureus
S. pyogenes = assay: MIC, antimicrobial activity assay; format: cell-based, Streptococcus pyogenes (DSM 20565); details: Streptococcus pyogenes; Table 4, Gram-positive; anaerobic
C. albicans = assay: MIC, antifungal activity assay; format: cell-based, Candida albicans (DSM 10697); details: Candida albicans; Table 1 first screening; 35 °C, 24 h; read-out: Minimal Inhibitory Concentration (MIC) C. albicans
V. diabolicus = assay: MIC, antimicrobial activity assay; format: cell-based; details: Vibrio diabolicus; Table 4, Gram-negative
L. lactis = assay: MIC, antimicrobial activity assay; format: cell-based, Lactococcus lactis (DSM 20481); details: Lactococcus lactis; Table 4, Gram-positive
B. cereus = assay: MIC, antimicrobial activity assay; format: cell-based; details: Bacillus cereus; Table 4, Gram-positive
M. smegmatis = assay: microbe, parasite or virus in culture; format: cell-based, Mycobacterium smegmatis (mc2155, ATCC 700084); details: Mycolicibacterium smegmatis, 72 h, read-out: Minimal Inhibitory Concentration (MIC) M. smegmatis
[5] = tested on: E. faecalis (Vancomycin-resistant); assay: MIC, antimicrobial activity assay; format: cell-based, vancomycin-resistant Enterococcus faecalis (DSMZ 13591); details: Enterococcus faecalis, read-out: MIC E. faecalis (Vancomycin-resistant)
C. difficile = assay: MIC, antimicrobial activity assay; format: cell-based, Clostridium difficile (DSM 1296); details: Clostridioides difficile; Table 4, Gram-positive; anaerobic
C. rodentium = assay: MIC, antimicrobial activity assay; format: cell-based, Citrobacter rodentium (ATCC 51116); details: Citrobacter rodentium; Table 4, Gram-negative
K. pneumonia = assay: MIC, antimicrobial activity assay; format: cell-based, Klebsiella pneumoniae (DSMZ 26371); details: Klebsiella pneumoniae; Table 4, Gram-negative
[6] = tested on: B. subtilis (Nisin-resistant); assay: MIC, antimicrobial activity assay; format: cell-based, nisin-resistant B. subtilis (DSMZ 347); details: Bacillus subtilis, read-out: MIC B. subtilis (Nisin-resistant)
C. farmer = assay: MIC, antimicrobial activity assay; format: cell-based, Citrobacter farmeri (ATCC 51633); details: Citrobacter farmeri; Table 4, Gram-negative
H. pylori = assay: MIC, antimicrobial activity assay; format: cell-based, Helicobacter pylori (ATCC 43504); details: Helicobacter pylori; Table 4, Gram-negative; microaerobic
[7] = tested on: S.aureus (Methicillin-resistant); assay: MIC, antimicrobial activity assay; format: cell-based; details: Staphylococcus aureus, read-out: MIC S.aureus (Methicillin-resistant)
S. enterica = assay: MIC, antimicrobial activity assay; format: cell-based, Salmonella enterica (CIP 80.39); details: Salmonella enterica; Table 4, Gram-negative
[8] = Table 1 first screening, read-out: Minimal Inhibitory Concentration (MIC) E. coli
[9] = Table 4, Gram-negative, read-out: MIC E. coli
[10] = Table 1 first screening, read-out: Minimal Inhibitory Concentration (MIC) P. aeruginosa
[11] = Table 4, Gram-negative, read-out: MIC P. aeruginosa
[12] = Table 1 first screening, read-out: Minimal Inhibitory Concentration (MIC) B. subtilis
[13] = Table 4, Gram-positive, read-out: MIC B. subtilis
[14] = Table 1 first screening, read-out: Minimal Inhibitory Concentration (MIC) S. aureus
[15] = Table 4, Gram-positive, read-out: MIC S. aureus

| SMILES | MIC [1] [µM] | MIC (S. flexneri) [µM] | MIC (A. gandavensis) [µM] | IC50 [2] [µM] | IC50 [3] [µM] | therapeutic index Caco2 [3] | IC50 [4] [µM] | MIC (V. alginolyticus) [µM] | MIC (E. coli; [8]) [µM] | MIC (E. coli; [9]) [µM] | MIC (C. perfringens) [µM] | MIC (P. aeruginosa; [10]) [µM] | MIC (P. aeruginosa; [11]) [µM] | MIC (B. subtilis; [12]) [µM] | MIC (B. subtilis; [13]) [µM] | MIC (A. baumannii) [µM] | MIC (S. aureus; [14]) [µM] | MIC (S. aureus; [15]) [µM] | MIC (C. albicans) [µM] | MIC (M. smegmatis) [µM] | further results |
| --- | --- | --- | --- | --- | --- | --- | --- | --- | --- | --- | --- | --- | --- | --- | --- | --- | --- | --- | --- | --- | --- |
| COc1ccc2c(Cc3ccc(CI)cc3)c3[n+](cc2c1OC)CCc1cc2c(cc1-3)OCO2 [Compound 8, 13-(4-Iodomethylbenzyl)Berberine] | > 100 | 50 | 3.12 | > 50 | > 50 | 11.18 | 23.4 ± 4.5 | 6.25 | > 100 | > 100 | 100 | > 100 | > 100 | 6.25 | 6.25 | > 100 | 6.25 | 6.25 | 50 | 25 | MIC (S. pyogenes): 12.5 µM; MIC (V. diabolicus): > 100 µM; MIC (L. lactis): 3.12 to 6.25 µM; MIC (B. cereus): 12.5 µM; MIC [5]: 50 µM; MIC (C. difficile): 100 µM; MIC (C. rodentium): > 100 µM; MIC (K. pneumonia): > 100 µM; MIC [6]: 12.5 µM; MIC (C. farmer): > 100 µM; MIC (H. pylori): 6.25 µM; MIC [7]: 12.5 µM; MIC (S. enterica): > 100 µM |
| COc1ccc2c(Cc3ccc(/C=C/C(=O)NCCc4ccc(S(N)(=O)=O)cc4)cc3)c3[n+](cc2c1OC)CCc1cc2c(cc1-3)OCO2 [Compound 23, (2E)-3-{4-[(Berberin-13-yl)methyl]phenyl}-N-[2-(4-sulfamoylphenyl)ethyl]prop-2-enamide] | > 100 | > 100 | 50 | > 50 | > 50 | 12.40 | > 50 | 6.25 | > 100 | > 100 | 50 | > 100 | > 100 | 25 | 25 | > 100 | 6.25 | 6.25 | 100 | 25 | MIC (S. pyogenes): 6.25 µM; MIC (V. diabolicus): > 100 µM; MIC (L. lactis): 6.25 µM; MIC (B. cereus): 12.5 µM; MIC [5]: 100 µM; MIC (C. difficile): 50 µM; MIC (C. rodentium): > 100 µM; MIC (K. pneumonia): > 100 µM; MIC [6]: 25 µM; MIC (C. farmer): > 100 µM; MIC (H. pylori): 6.25 µM; MIC [7]: 12.5 µM; MIC (S. enterica): > 100 µM |
| C=Cc1ccc(Cc2c3[n+](cc4c(OC)c(OC)ccc24)CCc2cc4c(cc2-3)OCO4)cc1 [Compound 9, 13-(4-Ethenylbenzyl)Berberine] | – | – | – | > 50 | 24.8 ± 3.6 | – | 12.8 ± 1.6 | – | > 100 | – | – | > 100 | – | 12.5 | – | – | 3.12 | – | 50 | 6.25 | – |
| COc1ccc2c(=O)cc(-c3ccc(Cc4c5[n+](cc6c(OC)c(OC)ccc46)CCc4cc6c(cc4-5)OCO6)cc3)oc2c1 [Compound 26, 2-{4-[(Berberin-13-yl)methyl]phenyl}-7-methoxy-4H-chromen-4-one] | > 100 | > 100 | 12.5 | > 50 | > 50 | 20.24 | > 50 | 50 | > 100 | > 100 | > 100 | > 100 | > 100 | 50 | 50 | > 100 | 12.5 | 12.5 | 100 | 50 | MIC (S. pyogenes): 25 µM; MIC (V. diabolicus): > 100 µM; MIC (L. lactis): 6.25 to 12.5 µM; MIC (B. cereus): 50 µM; MIC [5]: > 100 µM; MIC (C. difficile): > 100 µM; MIC (C. rodentium): > 100 µM; MIC (K. pneumonia): > 100 µM; MIC [6]: 50 µM; MIC (C. farmer): > 100 µM; MIC (H. pylori): 50 µM; MIC [7]: 25 µM; MIC (S. enterica): > 100 µM |
| COc1ccc2c(CC(=O)c3ccc(OC(=O)c4ccccc4)cc3OC(=O)c3ccccc3)c3[n+](cc2c1OC)CCc1cc2c(cc1-3)OCO2 [Compound 17, 4-[2-(Berberin-13-yl)acetyl]-3-(benzoyloxy)phenyl Benzoate] | > 100 | > 100 | 12.5 | > 50 | > 50 | 8.54 | 42.4 ± 9.8 | 1.5 to 3.12 | > 100 | > 100 | 50 | > 100 | > 100 | 12.5 | 12.5 | > 100 | 6.25 to 12.5 | 6.25 | 25 | 100 | MIC (S. pyogenes): 25 µM; MIC (V. diabolicus): > 100 µM; MIC (L. lactis): 3.12 to 6.25 µM; MIC (B. cereus): 25 µM; MIC [5]: 25 µM; MIC (C. difficile): 100 µM; MIC (C. rodentium): > 100 µM; MIC (K. pneumonia): > 100 µM; MIC [6]: 12.5 to 25 µM; MIC (C. farmer): > 100 µM; MIC (H. pylori): 6.25 to 12.5 µM; MIC [7]: 25 µM; MIC (S. enterica): > 100 µM |
| COc1ccc2c(O)c3[n+](cc2c1OC)CCc1cc2c(cc1-3)OCO2 [Compound 2, 13-hydroxyberberine] | – | – | – | > 50 | 34.2 ± 3.8 | – | > 50 | – | > 100 | – | – | > 100 | – | 50 | – | – | 12.5 to 25 | – | > 100 | 25 | – |
